Molecules are shown by their SMILES.

The results in this text go back to US9023843B2, “Antimicrobial compounds and methods of making and using the same” (Melinta Therapeutics, Inc., priority 2009, dated 2015).

The subject of the experiment is Eschericia coli strain ATCC25922. In words: standard microdilution assay to determine minimum inhibitory concentrations (MICs). It is filed as cell-based. The note with it: Escherichia coli, read-out: E. coli ATCC25922 MIC. As to the method:
Minimum inhibitory concentrations (MICs) are determined by the microdilution method, typically in a final volume of 100 microliters, according to protocols outlined by The Clinical and Laboratory Standards Institute [CLSI; formerly the National Committee for Clinical Laboratory Standards (NCCLS)]. See CLSI: Methods for dilution antimicrobial susceptibility tests for bacteria that grow aerobically; approved standard-fifth edition. Wayne, Pa.: NCCLS; 2000. The assays can be also be performed in microtiter trays according to conventional methodologies as published by the CLSI. See CLSI. Methods for Dilution Antimicrobial Susceptibility Tests for Bacteria That Grow Aerobically; Approved Standard-Seventh Edition. CLSI Document M7-A7 [ISBN 1-56238-587-9] CLSI, 940 West Valley Road, Suite 1400, Wayne Pa. 19087-1898 USA, 2006).
The compounds of the present invention were tested for antimicrobial activity. The compounds were run against Eschericia coli strain ATCC25922 using a standard microdilution assay to determine minimum inhibitory concentrations (MICs). […] A “N/A” means that data is unavailable. It will be recognized by one skilled in the art that the compounds can be assessed against other bacterial organisms and that the presentation of data for activity against Eschericia coli is illustrative and in no way is intended to limit the scope of the present invention. The compounds of the present invention can be assayed against a range of other microorganisms depending upon the performance activity desired to be gathered. Furthermore, the “+”, “−”, and “N/A” representation and the selection of a cutoff value of 16 micrograms/ml is also illustrative and in no way is intended to limit the scope of the present invention.
Background: Dilution methods test growth across graded concentrations, often in twofold steps.
By MIC is commonly meant the lowest concentration that inhibits growth of the organism. In the case of `NCCCNCc1ccc(-c2cn3c(=O)cc(-c4ccccc4F)[nH]c3nc2=O)cc1` [Compound 360], the MIC is above 16 µg/mL.
Regarding `NCCCNCc1ccc(-c2cn3c(=O)cc(-c4cc(F)c(F)cc4F)[nH]c3nc2=O)cc1` [Compound 362], the MIC was above 16 µg/mL.
Regarding `NCCCNCc1ccc(-c2cn3c(=O)cc(Cc4ccc(C(F)(F)F)cc4)[nH]c3nc2=O)cc1` [Compound 367], the MIC was above 16 µg/mL.
For `NCCCNCc1ccc(-c2cn3c(=O)cc(-c4ccccc4OC(F)(F)F)[nH]c3nc2=O)cc1` [Compound 371], the MIC was above 16 µg/mL.
Regarding `O=c1nc2[nH]c(-c3ccccc3F)cc(=O)n2cc1I` [Compound 375], the MIC is above 16 µg/mL.
Regarding `NCCCNCc1ccc(-c2cn3c(=O)cc(-c4ccc(OC(F)(F)F)cc4)[nH]c3nc2=O)cc1` [Compound 377], the MIC is above 16 µg/mL.
For the compound `COc1ccc(-c2cc(=O)n3cc(-c4ccc(CNCCCN)cc4)c(=O)nc3[nH]2)cc1` [Compound 378], the MIC is above 16 µg/mL.
For `COc1cc(-c2cc(=O)n3cc(-c4ccc(CNCCCN)cc4)c(=O)nc3[nH]2)cc(OC)c1OC` [Compound 379] the value was above 16 µg/mL; for `NCCCNCc1ccc(-c2cn3c(=O)cc(Cc4ccc5c(c4)OCO5)[nH]c3nc2=O)cc1` [Compound 380], above 16 µg/mL.
Regarding `NCCCNCc1ccc(-c2cn3c(=O)cc(-c4ccc(Cl)c(Cl)c4)[nH]c3nc2=O)cc1` [Compound 390], the MIC is above 16 µg/mL.
As to `NCCCNCc1ccc(-c2cn3c(=O)cc(-c4ccc(C(F)(F)F)cc4)[nH]c3nc2=O)cc1` [Compound 391], the MIC is above 16 µg/mL.
The same measure for `NCCCN1CCN(C(=O)Cn2cc3c(nc2=O)Nc2ccccc2O3)CC1` [Compound 392]: above 16 µg/mL; for `NCCCNCc1ccc(-n2cc3c(nc2=O)Nc2ccc(-c4ccc(F)cc4)cc2O3)cc1` [Compound 393]: above 16 µg/mL.
`NCCCNCc1ccc(-n2cc3c(nc2=O)Nc2cc(Br)ccc2O3)cc1` [Compound 396]: the MIC was above 16 µg/mL.
For `NCCCNCc1ccc(-n2cc3c(nc2=O)Nc2ccc(-c4cnc(N5CCOCC5)nc4)cc2O3)cc1` [Compound 400] the value was above 16 µg/mL; for `NCCCNCc1ccc(-n2cc3c(nc2=O)Nc2cc(-c4ccc(F)cc4)ccc2O3)cc1` [Compound 402], above 16 µg/mL; for `NCCCNCc1ccc(-c2cn3c(=O)cc(Cc4ccc(F)c(F)c4)[nH]c3nc2=O)cc1` [Compound 411], above 16 µg/mL.
As to `NCCCNCc1ccc(-c2cn3c(=O)cc(Cc4ccccc4OC(F)(F)F)[nH]c3nc2=O)cc1` [Compound 426], the MIC was above 16 µg/mL.
In the case of `NCCCNCc1ccc(-c2cn3c(=O)cc(Cc4ccc(Cl)c(Cl)c4)[nH]c3nc2=O)cc1` [Compound 430], the MIC is above 16 µg/mL.
`NCCCNCc1ccc(-n2cc3c(nc2=O)Nc2cc(-c4cnc(N5CCOCC5)nc4)ccc2O3)cc1` [Compound 440]: the MIC is above 16 µg/mL.
Turning to `NCCCNCc1ccc(-n2cc3c(nc2=O)Nc2ccc(Br)cc2O3)cc1` [Compound 442], the MIC was above 16 µg/mL.
Take `NCCCNCc1ccc(-c2cn3c(=O)cc(Cc4cccc([N+](=O)[O-])c4)[nH]c3nc2=O)cc1` [Compound 447]: the MIC is above 16 µg/mL.
Turning to `NCCCNCc1ccc(-n2cc3c(nc2=O)Nc2ccc(C#Cc4ccc(F)cc4)cc2O3)cc1` [Compound 460], the MIC is above 16 µg/mL.
The same measure for `NCCCNCc1ccc(-c2cn3c(=O)cc(Cc4cc(F)c(F)cc4F)[nH]c3nc2=O)cc1` [Compound 469]: above 16 µg/mL; for `NCCCN1CCC(n2cc3c(nc2=O)Nc2ccccc2O3)CC1` [Compound 528]: above 16 µg/mL.
Take `N=C(N)NCCCN1CCC(n2cc3c(nc2=O)Nc2ccccc2O3)CC1` [Compound 529]: the MIC is above 16 µg/mL.
With `NCCCCCN1CC[C@@H](n2cc3c(nc2=O)Nc2ccccc2O3)C1` [Compound 543], the MIC was above 16 µg/mL.
For the compound `NCCCCCN1CCCC(n2cc3c(nc2=O)Nc2ccccc2O3)CC1` (centres unmarked) [Compound 544], the MIC was above 16 µg/mL.
Regarding `NCCCCCN1CCC(n2cc3c(nc2=O)Nc2ccccc2O3)CC1` [Compound 557], the MIC was above 16 µg/mL.
